This is an account of results in US12565514B2, “Nucleic acid containing perfluoroalkyl group, and method for its production” (AGC Inc., priority 2019, dated 2026).

{C5-PFC} = N[C5-PFC] unit carrying a C5 perfluoroalkyl group, added by phosphoramidite

This series has as its system HeLa cells. The experiment in a line: Cellular uptake of fluorescein-modified nucleic acids by flow cytometry. To be noted: single-stranded nucleic acid with fluorescein at 3′-end, 2.5 μM in DMEM, incubated 4 or 24 hours. The format is cell-based. The protocol: HeLa cells were cultured in Dulbecco's modified Eagle's medium (DMEM, Thermo Fischer Scientific) supplemented with 10% FBS and 0.5% penicillin/streptomycin in a humidified atmosphere (5 volume % CO2) at 37° C. Cells for image analysis were cultured in a 35 mm glass bottom dish (manufactured by IWAKI).
HeLa cells were seeded in 12-well plates at a density of 10^5 cells/well and cultured. On the day after seeding, the medium in each well was replaced with DMEM medium (1 mL) containing DNA (2.5 μM) modified with fluorescein-bound N[PFC] or N[PFPE], and incubated for 4 or 24 hours. Then, the cell layer in the wells was washed twice with PBS, and the cells were detached by treatment with 0.05% (w/v) trypsin (200 μL) at 37° C. for 5 min. The recovered cells were suspended in DMEM (600 μL). The cell suspension was separated by centrifugation process (400G, 3 min), and PBS/1% BSA (500 μL) was added. The percentage of fluorescent cells and the average fluorescence intensity of this cell suspension were analyzed by a flow cytometer (“guava easyCyte8”, manufactured by Luminex).
In the case of double-stranded DNA, a sample was denatured at 100° C. and annealed by slowly bringing it down to room temperature.
The nucleic acid having fluorescein bonded to the 3′-end of the N[C8-PFC]-modified DNA synthesized in Example 2 was, as a single strand or as a double strand, added to the culture medium of HeLa cells and incubated, whereby the efficiency of cellular uptake was examined by flow cytometry.
The nucleic acid having fluorescein bonded to the 3′-end of the N[C5-PFPE]-modified DNA synthesized in Example 1 was, as a single strand, added to the culture medium of HeLa cells and incubated, whereby the efficiency of cellular uptake was examined by flow cytometry.
Take “5′-(N[C5-PFC])2TTTTTCAGTTGACCATATA-3′ [F2]”: the “cellular uptake (flow cytometry)” value is on record as “higher cellular uptake than the fluorescein-modified nucleic acid of cont-DNA”.

As to “5′-(N[C5-PFC])5TTTTTCAGTTGACCATATA-3′ (DNA, 5' {C5-PFC}-{C5-PFC}-{C5-PFC}-{C5-PFC}-{C5-PFC}, backbone not given here) [F5]”, the “cellular uptake (flow cytometry)” value is on record as “higher cellular uptake than the fluorescein-modified nucleic acid of cont-DNA”.

On to “5′-(N[C5-PFC])TTTTCAGTTGACCATATA-3′ (DNA, 5' {C5-PFC}, backbone not given here) [F1]”, for which the “cellular uptake (flow cytometry)” value is on record as “no difference from the fluorescein-modified nucleic acid of cont-DNA”.
